Test results: patent US20130137753A1, “METHODS AND COMPOSITIONS FOR THE DIAGNOSIS AND TREATMENT OF BREAST CANCER” (UNIVERSITY OF SOUTH ALABAMA, priority 2010, published 2013)

Legend:
[1] = tested on: Merlin; test: Western blot of Merlin in MDA-MB-435 cells treated with Lactacystin and wortmannin; assay type: cell-based; details: combined treatment Lactacystin 10-25 μM and wortmannin 100 nM, FIG. 4E
Protocol: FIG. 4 depicts OPN targeting Merlin for Akt-mediated proteasomal degradation. FIG. 4A is a Western blot of SUM159 cells transfected with Merlin and treated with OPN and Lactacystin. […] The smear represents ubiquitinated Merlin. FIG. 4D is a Western blot of SUM159 transfected with HA-ubiquitin and Merlin and treated with OPN (100 ng/ml), Lactacystin (10 μM) and Akt inhibitor IV. FIG. 4E is a Western blot of MDA-MB-435 cells treated with the PI-3-kinase inhibitor, wortmannin and Lactacystin. Cells were pre-treated with Wortmannin (100 nM) for 1 hr followed by Lactacystin for 4.5 hours.
The converse was seen when MDAMB-435 cells were treated with the proteasome inhibitor, Lactacystin (10-25 μM) and the PI-3-kinase inhibitor, wortmannin (100 nM). […] Silencing the expression of OPN reduced the overall levels of ubiquitinated Merlin; in combination with Akt inhibitor and Lactacystin, abrogating OPN expression caused a notable decrease in the ubiquitinated Merlin (FIG. 4F).

[2] = tested on: Merlin; test: Immunoprecipitation of Merlin and anti-HA blot for ubiquitination in SUM159 cells transfected with HA-ubiquitin and Merlin; assay type: cell-based, human; details: SUM159 cells constitutively expressing Merlin, OPN 100 ng/ml, Lactacystin 10 μM, FIG. 4D
Protocol: (§1) Immunoprecipitation—Cells were transfected with pcDNA3.1 HA-ubiquitin alone or in combination with pIRES2-myc-Merlin and incubated for 24 hrs. Cells were treated with 10 μM Lactacystin, 100 ng/ml OPN and 10 μM AKT inhibitor IV for 12 hrs and lysed in NP-40 buffer. The lysate was immunoprecipitated with anti-Merlin antibody and the immunoprecipitate was assessed by immunoblotting.
To assess the role of activated Akt induced by OPN, cells were co-treated with an Akt inhibitor. SUM159 cells were transfected with HA-ubiquitin and Merlin and treated with OPN (100 ng/ml), Lactacystin (10 μM) and Akt inhibitor IV. Cell lysate (1 mg) harvested in NP40 buffer was immunoprecipitated for Merlin. The immunoprecipitate was immunoblotted with anti-HA antibody. […] Merlin ubiquitination was enhanced when co-treated with OPN and was abolished in the presence of Akt inhibitor re-affirming the role of Akt downstream of OPN in modulating the stability of Merlin (FIG. 4D).

[3] = tested on: Akt; test: Western blot of phospho-Akt and Merlin in MCF10AT cells treated with OPN and Akt inhibitor IV; assay type: cell-based, human; details: FIG. 4B
Description: (§2) Western Blotting Analysis—Immunoblotting was done with anti-Merlin (Santa Cruz Biotech, Santa Cruz, Calif.), phospho-Ser473-Akt (Cell Signaling, Danvers, MAT), total Akt (Cell Signaling), anti-mouse HA (Santa Cruz), antiphospho-Ser315 Merlin, and anti-GAPDH (Cell Signaling). Anti-rabbit or anti-mouse HRP conjugated secondary antibody was used for detection and blots were developed with SuperSignal substrate (Pierce, Rockford, Ill.) and exposed using a Fuji LAS3000 imager.
(§3) Transfection and Drug Treatment—Cells were transfected with empty vector, Merlin (WT; wild-type) or T230A S315A Merlin mutant and treated with clasto-Lactacystin β-Lactone (Sigma, St. Louis, Mo.) for 2 hours. Recombinant OPN (100 ng/mL) (R&D Systems, Minneapolis, Minn.) was added and cells were lysed after 6 hours. Where indicated, cells were first treated with Akt inhibitor IV (Calbiochem) in serum free media for 30 min followed by 100 ng/mL human rOPN for 24 hours.
OPN interacts with a variety of cell surface receptors including CD44 and multiple integrins to activate signaling via the Akt pathway (31,38,39). […] The levels of total Akt remain unaltered. MCF10AT cells were also treated with Akt inhibitor IV in addition to OPN. […] Phosphorylation of Merlin via Akt targets it for degradation by the proteasome (15,40,41).

[4] = tested on: Merlin; test: Immunoprecipitation of endogenous Merlin and anti-HA blot for ubiquitination in MCF10AT cells transfected with HA-ubiquitin; assay type: cell-based, human
Protocol: as §1
To examine if OPN can induce ubiquitination of endogenous Merlin leading to its proteasomal degradation, MCF10AT cells were transfected with a HA-ubiquitin expressing construct. MCF10AT cells were transfected with HA-ubiquitin and treated with OPN, Lactacystin and Akt inhibitor IV. Cell lysate (2 mg) harvested in NP40 buffer was immunoprecipitated overnight for endogenous Merlin. The immunoprecipitate was immunoblotted with anti-HA antibody. Merlin and GAPDH levels from the cell lysates were inputs for the experiment.

[5] = tested on: Merlin; test: Western blot of phosphorylated Merlin (Serine 315) in SUM159 cells transfected with Merlin and treated with OPN; assay type: cell-based, human; details: SUM159 cells transfected with Merlin, treated with OPN, FIG. 5A
Description: as §2
Lysate from SUM159 cells transfected with Merlin and treated with OPN was probed for total Merlin and phosphorylated Merlin (Serine 315). GAPDH was used as a loading control. […] Phosphorylation of Merlin at this residue has been reported to target it for proteasome-mediated degradation (15,40). In particular, […] of Serine 315 and Threonine 230 makes Merlin refractory to OPN. SUM159 cells were transfected with Merlin (WT) or the T230A/S315A Merlin mutant and treated with OPN and Lactacystin. Cell lysates were probed for total Merlin. GAPDH was used as a loading control. Mutant Merlin (T230A S315A) is not degraded in response to OPN, whereas wild-type Merlin is degraded by OPN. […] It was further determined that while OPN is able to induce degradation of Merlin, the Merlin mutant T230A S315A (that cannot be phosphorylated by Akt) is resistant to the effects of OPN (FIG. 5B). […]

[6] = tested on: Merlin; test: Western blot of Merlin protein levels in SUM159 cells transfected with Merlin cDNA and treated with recombinant OPN and Lactacystin; assay type: cell-based, human; details: SUM159 cells transfected with Merlin cDNA, recombinant OPN 100 ng/mL, FIG. 4A
Description: as §2, §3
Akt signaling initiated downstream of OPN may regulate Merlin. To examine the effects of OPN on the post-translational regulation of Merlin, specifically the stability of Merlin protein, SUM159 breast cancer cells were transfected with Merlin cDNA and treated with recombinant OPN.

Row | Molecule | Merlin expression [1] | Merlin ubiquitination [2] | levels of Akt phosphorylation ([3]; Akt inhibitor IV in addition to OPN) | levels of Merlin ([3]; Akt inhibitor IV in the presence of OPN) | ubiquitination of endogenous Merlin ([4]; co-treatment with Akt inhibitor in the presence of OPN) | Akt activation (phosphorylation of Akt to phospho-Akt) ([3]; recombinant OPN alone) | levels of Merlin ([3]; recombinant OPN alone) | phosphorylation of Merlin at Ser315 [5] | protein levels of Merlin [6] | ubiquitination of endogenous Merlin (smear) ([4]; MCF10AT cells transfected with HA-ubiquitin, FIG. 4C)
1 | CC(=O)N[C@@H](CSC(=O)[C@]1([C@@H](O)C(C)C)NC(=O)[C@H](C)[C@@H]1O)C(=O)O | restored Merlin expression | – | – | – | – | – | – | – | – | –
2 | Akt inhibitor IV | – | abolished | decreased | restored | abolished | – | – | – | – | –
3 | OPN: Recombinant OPN (R&D Systems), human rOPN; secreted phosphoglycoprotein osteopontin | – | enhanced | – | – | – | activated Akt | decrease in the levels of Merlin | phosphorylation of Merlin at the Ser315 position | decrease in the protein levels of Merlin | some ubiquitination
